We go through 1 compound from ChEMBL document CHEMBL1141918 (Bioorg Med Chem Lett, 2005).

Among the targets are Carbonic anhydrase 9 (Homo sapiens, UniProt Q16790); Carbonic anhydrase 2 (Homo sapiens, UniProt P00918); Carbonic anhydrase 4 (Homo sapiens, UniProt P22748); Carbonic anhydrase 1 (Homo sapiens, UniProt P00915).
Assay [1] has as its target Carbonic anhydrase 5A, mitochondrial (Homo sapiens, UniProt P35218).

Chain of Carbonic anhydrase 4 (P22748 whole entry): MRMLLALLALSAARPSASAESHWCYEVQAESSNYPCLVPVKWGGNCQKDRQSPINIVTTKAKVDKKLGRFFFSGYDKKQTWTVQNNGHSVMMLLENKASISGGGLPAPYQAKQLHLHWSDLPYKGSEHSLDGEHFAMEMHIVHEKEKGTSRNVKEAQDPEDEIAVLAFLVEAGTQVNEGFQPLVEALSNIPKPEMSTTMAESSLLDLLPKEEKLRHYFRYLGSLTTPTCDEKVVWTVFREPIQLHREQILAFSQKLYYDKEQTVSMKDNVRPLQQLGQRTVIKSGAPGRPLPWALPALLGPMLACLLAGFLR
Chain of Carbonic anhydrase 1 (P00915 whole entry): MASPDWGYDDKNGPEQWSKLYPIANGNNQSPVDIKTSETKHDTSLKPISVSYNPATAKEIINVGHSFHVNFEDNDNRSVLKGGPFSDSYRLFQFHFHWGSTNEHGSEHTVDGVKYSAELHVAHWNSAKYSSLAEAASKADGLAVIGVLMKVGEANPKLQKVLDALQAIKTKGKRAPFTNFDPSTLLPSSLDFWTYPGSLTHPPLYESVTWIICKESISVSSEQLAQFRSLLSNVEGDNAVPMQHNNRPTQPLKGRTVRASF
Chain of Carbonic anhydrase 5A, mitochondrial (P35218 whole entry): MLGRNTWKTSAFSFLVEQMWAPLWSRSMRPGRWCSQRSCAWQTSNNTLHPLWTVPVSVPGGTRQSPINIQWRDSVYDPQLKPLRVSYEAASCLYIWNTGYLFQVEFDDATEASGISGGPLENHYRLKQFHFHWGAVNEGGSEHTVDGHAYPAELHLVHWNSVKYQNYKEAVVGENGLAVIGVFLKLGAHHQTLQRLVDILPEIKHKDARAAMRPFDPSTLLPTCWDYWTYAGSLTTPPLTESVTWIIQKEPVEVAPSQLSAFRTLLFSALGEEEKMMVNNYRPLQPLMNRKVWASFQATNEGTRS

For the compound `F[P-](F)(F)(F)(F)F.[Na+]`, the inhibitory constant (Ki) is more than 300 mM in assay [1]; 8.1 mM on Carbonic anhydrase 9; 17.5 mM at Carbonic anhydrase 2; 19.1 mM on Carbonic anhydrase 4; 11 mM on Carbonic anhydrase 1.
